Our source for the viability, T/C and IC50 values is PubChem BioAssay AID1918958 (Molecular Pharmacology Branch, DTP, NCI, 2023).

The subject of this test is NCI-H196 complex spheroid viability. Description: Anticancer human tumor NCI-H196 cell line growth inhibition [LSD1].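 For all read-outs here: spheroids exposed to agents for 7 days before readout.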 The note with it: for viability, T/C: stronger effect = lower value; for IC50: curve of compound. An excerpt: Multicellular complex tumor spheroid response to LSD1 Inhibitor Iadademstat in combination with a variety of drugs and investigational agents in selected tumor cell lines
The current study was undertaken to assess response to LSD1 inhibitors in combination with standard-of-care drugs and investigational agents in solid tumor complex spheroid models as well as in the K-562 leukemia. Complex spheroids include a stromal component modeled by human endothelial cells (HUVEC) and fibroblasts modeled by human mesenchymal stem cells (MSCs). The concentration ranges selected for each drug and investigational agent were based upon clinically achievable concentrations if the clinical Cmax of the agent was known.
Compounds. The drugs and investigational agents used in this study are listed on Table 1. All of the agents used, including staurosporine (NSC755774) and gemcitabine (NSC613327), were obtained from the Developmental Therapeutics Program, NCI. FDA-approved anticancer drugs are available from the NCI at http://dtp.nci.nih.gov/branches/dscb/oncology_drugset_explanation.html. Drugs and investigational agents were >95% pure by proton nuclear magnetic resonance (NMR) and liquid chromatography/mass spectrometry (LC/MS). Stock solutions were prepared at 400x in DMSO, stored at -70 degrees C, and diluted in fresh medium prior to their use. The final concentration of DMSO in cell culture wells never exceeded 0.25% (v/v). The FDA-approved anticancer drug set is available from the Developmental Therapeutics Program at https://dtp.cancer.gov/organization/dscb/obtaining/available_plates.htm. All drugs and investigational agents were tested over a range starting from a high concentration at or near the clinical Cmax and decreasing in half-log increments. If the clinical Cmax for an agent had not been determined, the highest concentration tested was 10 microM.
Cell Lines. The patient-derived cancer cell (PDC) lines: 292921-168-R-J2-PDC, K24384-001-R-PDC, and 521955-158-R2-J5-PDC pancreatic carcinomas, 556581-035-R-J1 ovarian carcinoma, 324938-238-R-J1-PDC, 855422-203-R-J1-PDC and 883617-216-R-J1-PDC urothelial bladder carcinomas, 743489-274-T-PDC renal cell carcinoma, 138582-R-J1 Merkel cell tumor, K60290-347-R-J1 and K57222-313-R-J1-PDC glioblastomas, 653999-131-R-J2-PDC, LG0703-F948-PDC, and 349418-098-R-PDC non-small cell lung carcinomas, 885512-296-R-J2-PDC, 171881-019-R-J1-PDC breast carcinomas and 186277-243-T-J2-PDC and 233499-124-R-J2-PDC colon carcinomas were obtained from the NCI Patient-Derived Models Repository (PDMR, https://pdmr.cancer.gov). The established cell lines NCI/ADR-RES (RRID:CVCL_14520 and OVCAR-5 (RRID:CVCL_1628) ovarian carcinomas, 786-O (RRID:CVCL_1051) and A498 (RRID:CVCL_A498) renal cell carcinoma, NCI-H211 (ATCC, cat. CRL-5824; RRID:CVCL_1529), NCI-H196 (ATCC, cat. CRL-5823, RRID:CVCL_1509), SW 1271 (ATCC, cat. CRL-2177, RRID:CVCL_1716) and NCI-H1876 (ATCC, cat. CRL-5902, RRID:CVCL_1503) small cell lung carcinomas, MDA-MB-231 (RRID:CVCL_0062) and MDA-MB-468 (RRID:CVCL_0419)breast carcinomas (10-12). Pooled donor human umbilical vein endothelial cells (HUVEC, Lonza, cat. CC-2519) and human mesenchymal stem cells (hMSC, Lonza, cat. PT-2501) were purchased from Lonza (Walkersville, MD).
Cell Culture. All cells were maintained in an incubator at 37 degrees C and 5% CO2 with 95% humidity. The PDC lines were cultured according to standard operating procedures established by the NCI PDMR (https://pdmr.cancer.gov). Briefly all PDCs were thawed and cultured in Matrigel-coated flasks prepared with a working solution of 1X Ham's F-12 nutrient mix, without supplementation (Invitrogen, Waltham, MA, cat. 11765054), 100 U/mL penicillin-streptomycin (Invitrogen, cat. 15140122), and 2.5% Matrigel (Corning Inc., Corning, NY, cat. 354248) for the first three passages. […]

Values joined by “and” are separate entries in the source; they are usually repeats but may differ in a detail not shown here. Equal values may be shown once.

The term viability, T/C denotes the ratio of treated to control. Broadly, the IC50 is the point on the concentration scale where inhibition reaches its midpoint. For the compound `Cn1ncnc1C1c2n[nH]c(=O)c3cc(F)cc(c23)NC1c1ccc(F)cc1` (stereo not drawn), the IC50 was over 100 nM. Further, the viability, T/C (compound 0.000316 µM) was 107% and 97.8%. Besides, under “compound 0.001 µM”, the viability, T/C was 104% and 106%. Moreover, for the setting “compound 0.00316 µM”, the viability, T/C is 99.1% and 105%. In addition, where the note is “compound 0.01 µM”, the viability, T/C is 101% and 100%. Also, the viability, T/C (compound 0.0316 µM) is 96.3% and 98.4%. For the same compound, the viability, T/C (compound 0.1 µM) was 96.8% and 95.6%.
With `NS(=O)(=O)OCC1CC(n2ccc3c(NC4CCc5ccccc54)ncnc32)CC1O` (stereo not drawn), the IC50 was over 3000 nM. Further, for the setting “compound 0.00949 µM”, the viability, T/C is 109% and 80.7%. The viability, T/C (compound 0.03 µM) was 94.8% and 79.4%. For the same compound, the viability, T/C (compound 0.0949 µM) was 75.2% and 67.4%. Besides, the viability, T/C (compound 0.3 µM) is 83.8% and 77.4%. The viability, T/C (compound 0.949 µM) is 79.3% and 74.5%. Also, the viability, T/C (compound 3 µM) is 67.7% and 66.8%.
On to `Nc1ccccc1NC(=O)c1ccc(CNC(=O)OCc2cccnc2)cc1`, for which the IC50 was 63.2 nM and 65.4 nM. Further, where the note is “compound 0.00949 µM”, the viability, T/C was 81.1% and 83.5%. In addition, the viability, T/C (compound 0.03 µM) is 65.5% and 73%. In addition, under “compound 0.0949 µM”, the viability, T/C was 42.2% and 39%. The viability, T/C (compound 0.3 µM) was 13.3% and 8.4%. Moreover, the viability, T/C (compound 0.949 µM) was 0.4% and 0.47%. Where the note is “compound 3 µM”, the viability, T/C was 1.02% and 0.51%.
`Nc1ccn(C2OC(CO)C(O)C2(F)F)c(=O)n1` (stereo not drawn): the IC50 was over 300 nM. Moreover, the viability, T/C (compound 0.000949 µM) was 98.3% and 103%. Moreover, the viability, T/C (compound 0.003 µM) is 95.8% and 101%. For the same compound, under “compound 0.00949 µM”, the viability, T/C is 97.9% and 81.6%. Further, under “compound 0.03 µM”, the viability, T/C was 66.4% and 65.5%. In addition, the viability, T/C (compound 0.0949 µM) was 68.4% and 66.2%. Where the note is “compound 0.3 µM”, the viability, T/C is 63.8%.
In the case of `Nc1ncn(C2CC(O)C(CO)O2)c(=O)n1` (stereo not drawn), the IC50 was over 1000 nM. Also, the viability, T/C (compound 0.00316 µM) was 106% and 105%. For the same compound, the viability, T/C (compound 0.01 µM) was 92.3% and 102%. In addition, for the setting “compound 0.0316 µM”, the viability, T/C was 95.5% and 99.8%. Moreover, for the setting “compound 0.1 µM”, the viability, T/C was 101% and 103%. The viability, T/C (compound 0.316 µM) was 100% and 102%. Also, the viability, T/C (compound 1 µM) is 93.5% and 97.9%.
Take `Nc1ncn(C2CC(O)C(CO)S2)c(=O)n1` (stereo not drawn): the IC50 is over 300 nM. Moreover, the viability, T/C (compound 0.000949 µM) is 96.8% and 102%. The viability, T/C (compound 0.003 µM) was 105% and 111%. Further, the viability, T/C (compound 0.00949 µM) is 103% and 106%. Besides, under “compound 0.03 µM”, the viability, T/C was 106% and 111%. For the same compound, the viability, T/C (compound 0.0949 µM) is 111% and 116%. Further, for the setting “compound 0.3 µM”, the viability, T/C was 100% and 104%.
As for `O=C(C=Cc1cccc(S(=O)(=O)Nc2ccccc2)c1)NO`, the IC50 is 155 nM and 119 nM. For the same compound, the viability, T/C (compound 0.00949 µM) is 107% and 99.7%. Also, the viability, T/C (compound 0.03 µM) was 103% and 104%. Further, the viability, T/C (compound 0.0949 µM) was 70.1% and 56.7%. The viability, T/C (compound 0.3 µM) was 22.9% and 15%. In addition, under “compound 0.949 µM”, the viability, T/C was 0.4%. Also, under “compound 3 µM”, the viability, T/C is 0.41% and 0.39%.
`O=C(C=Cn1cnc(-c2cc(C(F)(F)F)cc(C(F)(F)F)c2)n1)NNc1cnccn1`: the IC50 is under 3.16 nM. Moreover, the viability, T/C (compound 0.00316 µM) is 28.4% and 33.1%. Further, for the setting “compound 0.01 µM”, the viability, T/C is 31% and 30.9%. For the same compound, the viability, T/C (compound 0.0316 µM) is 19.2% and 19.6%. Also, the viability, T/C (compound 0.1 µM) was 17.7% and 14.5%. Moreover, under “compound 0.316 µM”, the viability, T/C was 13.8% and 10.2%. Also, for the setting “compound 1 µM”, the viability, T/C was 7.27% and 6.31%.
As to `O=C(c1cc(Cc2n[nH]c(=O)c3ccccc23)ccc1F)N1CCN(C(=O)C2CC2)CC1`, the IC50 is over 10000 nM. Also, the viability, T/C (compound 0.0316 µM) is 91.2% and 89.6%. Further, the viability, T/C (compound 0.1 µM) was 93.7% and 93.2%. Further, for the setting “compound 0.316 µM”, the viability, T/C is 91.9% and 90%. In addition, where the note is “compound 1 µM”, the viability, T/C was 94% and 84.9%. Further, the viability, T/C (compound 3.16 µM) was 89.9% and 91.9%. Besides, under “compound 10 µM”, the viability, T/C was 95.3% and 95.9%.
